In patent US7115574B2, “System and method for support legacy operating system booting in a legacy-free system” (priority 2001, dated 2006):

Assays:
[1] = test system: inflammation induced in the ear by picryl chloride application; assay: Picryl chloride-induced ear swelling; format: in vivo, BALB/C mice; conditions: for % Inhibition 3 h: 3 h after picryl chloride; for % Inhibition 6 h: 6 h after picryl chloride
Protocol: Hiltz, M. E., Catania, A., Lipton, J. M., Anti-Inflammatory Activity of aα-MSH (11-13) Analogs: Influence of Alteration in Stereochemistry, 12 Peptides 767 (1981). […] Female BALB/C mice (Simonsen Laboratories), 7 weeks old, were housed at 23-25° C. in groups of no more than 5 per cage [28 cm (L)×18 cm (W)×13 cm (H)]. They were allowed to acclimatize to standard lighting and temperature conditions for at least 1 week, with food and water available ad lib, before the experiment began. Five to ten animals were randomly assigned to each treatment group each test day, and all experiments were repeated at least twice to confirm reproducibility. To reduce error due to slight differences in responses to the irritant of animals from different shipments, tests of each agent were performed as separate experiments in which experimental and control animals were drawn from the same shipment.
In the experiments each animal was anesthetized with 1 mg of pentobarbital sodium solution ([…], Nembutal, Abbott Laboratories, Abbott park, Ill.). Baseline ear thickness was measured for both ears with a spring-loaded micrometer (Swiss Precision Instruments, Los Angeles, Calif.). Ear thickness was expressed in units of 10^−3 cm; the average thickness of unstimulated ears was approximately 25-30×10^−3 cm. After baseline measurements were taken, one of six solutions was injected IP. […] The doses of the tripeptides were 10 μg (2.6×.10^−8 M), 20 μg (5.2×.10^−8 M), 40 μg (1.04×.10^−7 M), and 80 μg (2.08×.10^−7 M). Immediately after saline or α-MSH injection, a micropipette was used to coat both sides of each ear with 10 μl […] of a 0.5% picryl chloride (Polysciences, Warrington, Pa.) solution in acetone.
Ear thickness was remeasured 3 and 6 h after picryl chloride application. Swelling was determined by subtracting baseline thickness from the measurements for each ear at 3 and 6 h. The differences for both ears were then averaged for the final analysis.
Repeated-measure ANOVA techniques were used to determine if there was an overall difference among group data for each peptide tested in separate experiments. In those cases in which the ANOVA yielded significant results, Dunnett's test was then used to compare the effects of peptide doses with control (saline) data for each of the two time periods, 3 and 6 h.

[2] = test system: histamine-induced blue weal formation; assay: Sparrow/Wilhelm histamine-induced blue weal assay; format: in vivo, New Zealand white rabbits; conditions: for Result (relative intensity of blue weals, experimental vs control): scored 30 minutes after histamine
Source text: This model relies on the principal that localized, subcutaneous injections of histamine will result in a localized increase in capillary permeability. When the test animal has been pretreated with blue dye intravenously, the localized histamine injections will elicit blue-colored “weals” around the injection site. Thus, by preadministration of an effective anti-inflammatory agent the blue color of the histamine-induced weals will be much less pronounced, with the amount of color reduction being dependent on the relative amount and/or potency of the anti-inflammatory agent used.
Non-moulting New Zealand white rabbits were used for the Sparrow/Wilhelm assay. The skin of the rabbits back was closely clipped 1-2 days previous to the experiment, but not depilated, and the rabbits were kept warm until tested. […] Control rabbits received sham injections. Fifteen minutes following injection of the agent or sham, the rabbits received approximately 30 mg/kg of Pontamine blue dye as a 2.5% solution in 0.45% saline, into an exposed vein. Immediately following dye injections, histamine was injected intradermally in a 0.10 ml volume (1.25 mg histamine 0.1 ml volume) at several sites on each side of the spine. In all, one vertical row of six injections were made on each side of the spine. The relative intensity of the resultant blue weals were scored by an independent observer 30 minutes after histamine injection.

[3] = test system: edema caused by intradermal injection of recombinant human IL-1β in the mouse ear; assay: IL-1β-induced ear edema with centrally administered α-MSH and receptor antagonists; format: in vivo, BALB/c mice; conditions: α-MSH(1-13) given centrally with propranolol injected centrally
Protocol: See Macaluso, A., McCoy, D., Ceriani, G., Watanabe, T., Biltz, J., Catania, A., and Lipton, J. M., Anti-inflammatory Influences of a-MSH Molecules: Central Neurogenic and Peripheral Actions, 14(4), J. of Neuroscience 2377-2382 (1994). Female BALB/c mice (Simonsen Laboratories, Gilroy, Calif.), 7-8 weeks old, were housed at 23-25° C. in groups not exceeding five animals per cage [28 cm (L)×18 cm (W)×13 cm (H)]. Before the experiments they were acclimatized for not less than 1 week before experimentation to standard lighting and temperature conditions with food and water freely available.
Mice were anesthetized with 10% pentobarbital sodium solution (1 mg/mouse, 50 mg/ml, Nembutal sodium solution; Abbott Laboratories, North Chicago, Ill.). Baseline ear thickness measurements were taken with a spring-loaded micrometer (Swiss Precision Instruments, Los Angeles, Calif.). Ear thickness was expressed in centimeters and was measured at least twice at each time point. The average thickness of unstimulated ears was […]. Inflammation was induced by injecting 20 μl of recombinant human IL-1β (1500 U; Genzyme, Cambridge, Mass.) directly into the skin (intradermally) of one ear of each mouse using a 28 gauge needle (Hiltz et al., 1992). Measures of ear thickness were repeated 4 and 6 hr later, while the mice were under sodium pentobarbital anesthesia.
Several agents were administered at the time of ear challenge to pharmacologically block certain receptors: atropine (Sigma Chemical Co.; 150 μg i.p.), a muscarinic receptor blocker that acts on autonomic end-organ receptors, was chosen because of links between inflammation and modulation of pain and the finding that muscarinic antagonists increase pain threshold (Hartvig et al., 1989); phentolamine (Sigma; 150 μg i.p.) an agent that competes for occupancy of α-adrenergic receptors; propranolol (Sigma; 150 μg, i.p.; 30 μg, i.c.v.), a nonspecific competitive antagonist for β-adrenergic receptors.
Because of the size of the experiments and the requirement for several shipments of animals over time, several experiments were performed, each with complete treatment and control groups drawn from the same shipment of mice. Omnibus analysis of variance techniques (Dynastat, Washington, D.C.) were used to test overall differences among group means. Tukey's protected t test was used to compare individual means. Probability values of <0.05 were considered significant.

Row | Substance | % Inhibition 3 h ([1]; 10 μg IP) | % Inhibition 6 h ([1]; 10 μg IP) | % Inhibition 3 h ([1]; 20 μg IP) | % Inhibition 6 h ([1]; 20 μg IP) | % Inhibition 3 h ([1]; 40 μg IP) | % Inhibition 6 h ([1]; 40 μg IP) | % Inhibition 3 h ([1]; 80 μg IP) | % Inhibition 6 h ([1]; 80 μg IP) | overall effect on inflammation (ANOVA) ([1]; 10-80 μg IP, 3 and 6 h) | Result (relative intensity of blue weals, experimental vs control) ([2]; 0.625 ug/kg protected tripeptide intravenously) | Result (relative intensity of blue weals, experimental vs control) ([2]; 1.25 ug/kg protected tripeptide intravenously) | Result (relative intensity of blue weals, experimental vs control) ([2]; 5 ug/kg protected tripeptide intravenously) | Result (relative intensity of blue weals, experimental vs control) ([2]; 10 ug/kg protected tripeptide intravenously) | lowest intravenous dose giving appreciable reduction in histamine-induced blue weal formation ([2]; rabbits, intravenous) | inhibition of ear edema by α-MSH ([3]; 4 hr) | inhibition of ear edema by α-MSH ([3]; 6 hr)
1 | Ac-Lys-Pro-Val-NH2 [α-MSH(11-13)] | 26% | 25% | 21% | 19% | 33% | 26% | 50% | 42% | inhibited acute inflammation | No difference | E lighter than C | E lighter than C | E lighter than C | 1.25 µg/kg |  | 
2 | SYSMEHFRWGKPV [α-MSH(1-13)] |  |  |  |  |  |  |  |  |  |  |  |  |  |  | 36% | 32%
